From patent US10154988B2, “Methods and compositions for treating schizophrenia” (The Johns Hopkins University, priority 2012, dated 2018)
Entries after “also recorded” stand apart in the source; their conditions may differ.

How the values were obtained:
[1] = test system: entorhinal cortex (EC) of aMCI subjects; assay: fMRI activity in entorhinal cortex during lure stimuli correctly identified as similar; type: in vivo, human; conditions: 125 mg twice a day for two weeks vs placebo
Description: A within-subjects trial of 8 weeks duration, involving 17 amnestic MCI (aMCI) subjects and 17 age-matched controls with a low dose treatment of levetiracetam is conducted. During the course of the study, each aMCI subject receives both drug and placebo treatments separately in two periods of two weeks each, with the order of treatments among different aMCI subjects being counterbalanced (see FIG. 7). Age-matched control subjects that are treated with placebo serve as a further control. Cognitive testing and fMRI imaging data are obtained from the subjects after each two week period of drug/placebo treatment. As described above, the drug treatment period is the two weeks preceding Visit 1 or 2 (with the two week period preceding the other Visit being the placebo phase). […] Imaging data are obtained through high-resolution methods developed in the Stark laboratory. Data are collected on a Phillips 3 Tesla scanner (Eindhoven, The Netherlands) equipped with an 8-channel SENSE (Sensitivity Encoding) head coil, located at the F.M. Kirby Research Center for Functional Brain Imaging at the Kennedy Krieger Institute (Baltimore, Md.). […] Group data are analyzed using a two-way Analysis of Variance (ANOVA) with trial types and group as fixed factors, and subject as a random factor nested within group. […]

[2] = test system: reelin in Entorhinal Cortex (EC2); assay: reelin mRNA in situ hybridization in entorhinal cortex after 4-week levetiracetam; type: in vivo, rat; conditions: 10 mg/kg/day, osmotic minipumps, 28 days; vs AI-VEH t(13)=2.386, p=0.033
Description: Under isoflurane anesthesia, memory-impaired aged rats are implanted subcutaneously in the intrascapular region with osmotic mini-pumps (ALZET,
Durect Corporation, Cupertino, Calif.) with levetiracetam (10 mg/kg/day) or saline vehicle for four weeks prior to perfusion. Young rats, which served as controls, receive either saline vehicle in mini-pumps or no implantation.
At the end of the 4-week treatment period, rats are anesthetized with isoflurane and perfused transcardiacally with 0.1 M phosphate buffer saline, followed by 4% paraformaldehyde in phosphate buffer. Brains are removed and post-fixed in paraformaldehyde overnight. The brains are then moved into 4% paraformaldehyde in phosphate buffer containing 16% sucrose. […]
Probe templates are synthesized as described in Haberman et al. (2008). […] The final probe is resuspended in RNase-free water and the specific activity is determined by scintillation counter.
In situ hybridization is carried out as described by Haberman et al., (2008). […] Slides are dried overnight, exposed to a phosphoimager screen, and quantified by using ImageQuant (GE Healthcare). Digital images are acquired of entorhinal cortical sections from the same levels for all animals and the subregion of interest is outlined and quantified. […]

[3] = cited from earlier work

Compound: CC[C@@H](C(N)=O)N1CCCC1=O [levetiracetam, (2S)-2-(2-oxopyrrolidin-1-yl) butanamide]
- EC activity during memory judgments (fMRI) [1]: normalizes activity
- levels of reelin (mRNA expression) in Entorhinal Cortex (EC2) [2]: restores the levels of reelin; also recorded: significantly increases the expression of reelin; also recorded: restores reelin in Entorhinal Cortex (EC2)
- plasma half-life expected in elderly ([3]; elderly, decreased renal function): 9 to 10 h
- time of peak plasma concentrations ([3]; following oral administration): about 1 hour
- plasma half-life ([3]; humans): approximately 7±1 hour
- time to steady state ([3]; multiple twice-daily dosing): 2 days
- absorption after oral administration ([3]; oral): rapidly and almost completely absorbed
- effect of food on bioavailability ([3]; oral): not affected by food
